Source: PubChem BioAssay AID2060615 (Molecular Pharmacology Branch, DTP, NCI, 2025)

System: 496974-208-R-J2-PDC complex spheroids, growth % test/control
Experiment: Anticancer human tumor 496974-208-R-J2-PDC patient-derived pancreatic carcinoma cell line growth inhibition [CLK]
Settings: for IC50: curve of first compound; for viability, T/C: stronger effect = lower value
Procedure, shortened: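 Patient-derived tumor cells grown as complex spheroids with HUVEC endothelial cells and mesenchymal stem cells, treated with drug combinations. Concentrations descend in half-log steps from near clinical Cmax, or from 10 microM if Cmax unknown.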

[1] = second compound 0.0316 µM, first compound 0.0316 µM
[2] = second compound 0.0316 µM, first compound 0.1 µM
[3] = second compound 0.0316 µM, first compound 0.316 µM
[4] = second compound 0.0316 µM, first compound 1 µM
[5] = second compound 0.1 µM, first compound 0.0316 µM
[6] = second compound 0.1 µM, first compound 0.1 µM
[7] = second compound 0.1 µM, first compound 0.316 µM
[8] = second compound 0.1 µM, first compound 1 µM
[9] = second compound 0.316 µM, first compound 0.0316 µM
[10] = second compound 0.316 µM, first compound 0.1 µM
[11] = second compound 0.316 µM, first compound 0.316 µM
[12] = second compound 0.316 µM, first compound 1 µM
[13] = second compound 1 µM, first compound 0.0316 µM
[14] = second compound 1 µM, first compound 0.1 µM
[15] = second compound 1 µM, first compound 0.316 µM
[16] = second compound 1 µM, first compound 1 µM
[17] = second compound 3.16 µM, first compound 0.0316 µM
[18] = second compound 3.16 µM, first compound 0.1 µM
[19] = second compound 3.16 µM, first compound 0.316 µM
[20] = second compound 3.16 µM, first compound 1 µM
[21] = second compound 10 µM, first compound 0.0316 µM
[22] = second compound 10 µM, first compound 0.1 µM
[23] = second compound 10 µM, first compound 0.316 µM
[24] = second compound 10 µM, first compound 1 µM
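Note: spheroids exposed to the drugs for 7 days before readout.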
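Throughout, for viability, T/C: 100% = DMSO vehicle control wells.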

Compound: CCc1c2c(nc3ccc(O)cc13)-c1cc3c(c(=O)n1C2)COC(=O)[C@]3(O)CC + CNC(=O)c1ccc(Nc2nc(OC3CCCC3)c3c(-c4ccc5nc(C)oc5c4)c[nH]c3n2)c(OC)c1
- IC50 (second compound 0.0316 µM): 15.2 nM
- IC50 (second compound 0.1 µM): 12.7 nM
- IC50 (second compound 0.316 µM): 12.6 nM
- IC50 (second compound 1 µM): 11.2 nM
- IC50 (second compound 3.16 µM): 4.84 nM
- IC50 (second compound 10 µM): < 3.16 nM
- viability, T/C (second compound 0.0316 µM, first compound 0.00316 µM): 70.7%
- viability, T/C (second compound 0.0316 µM, first compound 0.01 µM): 56.9%
- viability, T/C [1]: 38.6%
- viability, T/C [2]: 19%
- viability, T/C [3]: 12.1%
- viability, T/C [4]: 3.81%
- viability, T/C (second compound 0.1 µM, first compound 0.00316 µM): 67.8%
- viability, T/C (second compound 0.1 µM, first compound 0.01 µM): 54%
- viability, T/C [5]: 36%
- viability, T/C [6]: 21.2%
- viability, T/C [7]: 9.65%
- viability, T/C [8]: 2.79%
- viability, T/C (second compound 0.316 µM, first compound 0.00316 µM): 69.8%
- viability, T/C (second compound 0.316 µM, first compound 0.01 µM): 53.5%
- viability, T/C [9]: 35%
- viability, T/C [10]: 19.2%
- viability, T/C [11]: 7.42%
- viability, T/C [12]: 3.21%
- viability, T/C (second compound 1 µM, first compound 0.00316 µM): 60.5%
- viability, T/C (second compound 1 µM, first compound 0.01 µM): 52.6%
- viability, T/C [13]: 31.2%
- viability, T/C [14]: 13.5%
- viability, T/C [15]: 5.29%
- viability, T/C [16]: 2.81%
- viability, T/C (second compound 3.16 µM, first compound 0.00316 µM): 54.4%
- viability, T/C (second compound 3.16 µM, first compound 0.01 µM): 42.6%
- viability, T/C [17]: 25.6%
- viability, T/C [18]: 12.9%
- viability, T/C [19]: 4.63%
- viability, T/C [20]: 2.2%
- viability, T/C (second compound 10 µM, first compound 0.00316 µM): 50%
- viability, T/C (second compound 10 µM, first compound 0.01 µM): 38.9%
- viability, T/C [21]: 24.4%
- viability, T/C [22]: 11.9%
- viability, T/C [23]: 3.68%
- viability, T/C [24]: 6.41%

Compound: COc1cccc2c1C(=O)c1c(O)c3c(c(O)c1C2=O)CC(O)(C(=O)CO)CC3OC1CC(N)C(O)C(C)O1 (centres undefined) + CNC(=O)c1ccc(Nc2nc(OC3CCCC3)c3c(-c4ccc5nc(C)oc5c4)c[nH]c3n2)c(OC)c1
- IC50 (second compound 0.0316 µM): 185 nM
- IC50 (second compound 0.1 µM): 177 nM
- IC50 (second compound 0.316 µM): 191 nM
- IC50 (second compound 1 µM): 115 nM
- IC50 (second compound 3.16 µM): 103 nM
- IC50 (second compound 10 µM): 53.6 nM
- viability, T/C [1]: 70.4%
- viability, T/C [2]: 62.2%
- viability, T/C [3]: 38.3%
- viability, T/C [4]: 3.78%
- viability, T/C (second compound 0.0316 µM, first compound 3.16 µM): 0.62%
- viability, T/C (second compound 0.0316 µM, first compound 10 µM): 0.49%
- viability, T/C [5]: 67.5%
- viability, T/C [6]: 66.1%
- viability, T/C [7]: 33.8%
- viability, T/C [8]: 3.28%
- viability, T/C (second compound 0.1 µM, first compound 3.16 µM): 0.77%
- viability, T/C (second compound 0.1 µM, first compound 10 µM): 2.66%
- viability, T/C [9]: 68%
- viability, T/C [10]: 68.3%
- viability, T/C [11]: 36.2%
- viability, T/C [12]: 3.12%
- viability, T/C (second compound 0.316 µM, first compound 3.16 µM): 0.68%
- viability, T/C (second compound 0.316 µM, first compound 10 µM): 0.3%
- viability, T/C [13]: 68%
- viability, T/C [14]: 52.9%
- viability, T/C [15]: 22.5%
- viability, T/C [16]: 1.15%
- viability, T/C (second compound 1 µM, first compound 3.16 µM): 2.86%
- viability, T/C (second compound 1 µM, first compound 10 µM): 3.97%
- viability, T/C [17]: 57.9%
- viability, T/C [18]: 50.7%
- viability, T/C [19]: 18.4%
- viability, T/C [20]: 1.62%
- viability, T/C (second compound 3.16 µM, first compound 3.16 µM): 0.55%
- viability, T/C (second compound 3.16 µM, first compound 10 µM): 0.42%
- viability, T/C [21]: 57.8%
- viability, T/C [22]: 40.5%
- viability, T/C [23]: 16.8%
- viability, T/C [24]: 1.34%
- viability, T/C (second compound 10 µM, first compound 3.16 µM): 0.84%
- viability, T/C (second compound 10 µM, first compound 10 µM): 0.85%
